Among the data in patent publication US12552826B2, “PRMT5 inhibitors” (Merck Sharp & Dohme LLC, priority 2018, dated 2026) are EC50 values, retold here.

In this experiment the target is T1, PRMT5 (Homo sapiens, UniProt O14744).
T1 construct: endogenous in cells; host or cells: MCF-7
T1 sequence (O14744 whole entry): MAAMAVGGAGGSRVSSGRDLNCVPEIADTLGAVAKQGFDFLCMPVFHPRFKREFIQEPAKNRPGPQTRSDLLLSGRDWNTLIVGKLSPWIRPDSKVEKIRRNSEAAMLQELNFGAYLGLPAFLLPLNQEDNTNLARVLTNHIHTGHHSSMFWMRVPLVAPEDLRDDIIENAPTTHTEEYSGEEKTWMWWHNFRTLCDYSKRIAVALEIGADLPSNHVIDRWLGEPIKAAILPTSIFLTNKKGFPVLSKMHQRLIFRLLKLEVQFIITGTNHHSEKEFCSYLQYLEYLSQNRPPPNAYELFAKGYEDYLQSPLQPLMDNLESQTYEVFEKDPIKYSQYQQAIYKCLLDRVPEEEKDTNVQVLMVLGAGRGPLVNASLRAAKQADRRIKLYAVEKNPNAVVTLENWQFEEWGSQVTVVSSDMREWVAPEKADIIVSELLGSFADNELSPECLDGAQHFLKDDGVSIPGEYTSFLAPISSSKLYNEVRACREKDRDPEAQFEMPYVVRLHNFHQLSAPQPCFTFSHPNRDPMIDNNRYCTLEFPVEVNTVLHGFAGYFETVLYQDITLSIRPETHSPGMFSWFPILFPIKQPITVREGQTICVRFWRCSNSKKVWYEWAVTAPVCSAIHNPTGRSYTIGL
T1 sequence (Q9BQA1 whole entry partner): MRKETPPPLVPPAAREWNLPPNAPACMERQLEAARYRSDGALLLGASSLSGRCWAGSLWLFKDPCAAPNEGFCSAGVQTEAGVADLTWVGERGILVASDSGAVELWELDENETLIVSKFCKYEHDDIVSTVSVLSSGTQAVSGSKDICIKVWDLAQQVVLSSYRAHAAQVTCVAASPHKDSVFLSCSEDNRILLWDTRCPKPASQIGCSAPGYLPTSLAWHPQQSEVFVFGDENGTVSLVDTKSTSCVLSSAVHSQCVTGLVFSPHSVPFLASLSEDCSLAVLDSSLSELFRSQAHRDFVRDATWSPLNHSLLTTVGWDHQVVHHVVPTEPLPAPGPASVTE
Kind of experiment: PRMT5 Cell Target Engagement (TE) Assay. It is filed as cell-based. The following applies: MCF-7 cells, 3 days treatment, nuclear SDMA by high content imaging. An outline of the steps: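 MCF-7 cells seeded 5 h, then treated 3 days at 37 °C with 10-point 1:3 dilutions from 10000 nM. Fixed cells immunostained for SDMA with AF488 secondary; nuclear intensity imaged per cell and expressed as % inhibition vs DMSO. EC50 from 4-parameter robust fit.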
Usually EC50 stands for the concentration needed to bring the measured effect to its halfway point. Low readings indicate higher potency in that assay, high ones lower potency in that assay. On to `Cc1ccc([C@@H](O)[C@H]2O[C@@H](n3ccc4c(N)ncnc43)[C@H](O)[C@]2(C)O)cc1` [Example 30, 7-[(5R)-3-C-methyl-5-C-(4-methylphenyl)-beta-D-ribofuranosyl]-7H-pyrrolo[2,3-d]pyrimidin-4-amine], for which the 50% effective concentration (EC50) stood at 3170 nM.
To `C[C@@]1(O)[C@@H]([C@H](O)c2cc(F)cc(C(F)F)c2F)O[C@@H](n2ccc3c(N)ncnc32)[C@@H]1O` [Example 6, (2R,3S,4R,5R)-5-(4-amino-7H-pyrrolo[2,3-d]pyrimidin-7-yl)-2-((R)-(3-(difluoromethyl)-2,5-difluorophenyl)(hydroxy)methyl)-3-methyltetrahydrofuran-3,4-diol] belongs 6.8 nM.
To `C[C@]1(O)[C@@H](O)[C@H](n2ccc3c(N)ncnc32)O[C@@H]1[C@](C)(O)c1cc(C(F)F)c(F)c2c1CNCC2` [Example 10, (2R,3S,4R,5R)-5-(4-amino-7H-pyrrolo[2,3-d]pyrimidin-7-yl)-2-((R)-1-(6-(difluoromethyl)-5-fluoro-1,2,3,4-tetrahydroisoquinolin-8-yl)-1-hydroxyethyl)-3-methyltetrahydrofuran-3,4-diol] belongs 5.6 nM; to `C[C@@]1(O)[C@@H]([C@@H](O)c2cc(Cl)cc(C(F)(F)F)c2)O[C@@H](n2ccc3c(N)ncnc32)[C@@H]1O` [Example 61, 7-{(5S)-5-C-[3-chloro-5-(trifluoromethyl)phenyl]-3-C-methyl-beta-D-ribofuranosyl}-7H-pyrrolo[2,3-d]pyrimidin-4-amine], more than 10000 nM.
`C[C@@]1(O)[C@@H]([C@H](O)c2cc(Cl)cc(C(F)(F)F)c2)O[C@@H](n2ccc3c(N)ncnc32)[C@@H]1O` [Example 60, 7-{(5R)-5-C-[3-chloro-5-(trifluoromethyl)phenyl]-3-C-methyl-beta-D-ribofuranosyl}-7H-pyrrolo[2,3-d]pyrimidin-4-amine] had an EC50 of 403 nM.
The compound `C[C@]1(O)[C@@H](O)[C@H](n2ccc3c(N)ncnc32)O[C@@H]1[C@](C)(O)c1cc(C(F)F)ccn1` [Example 76, 7-{6-deoxy-5-C-[4-(difluoromethyl)pyridin-2-yl]-3-C-methyl-alpha-L-talofuranosyl}-7H-pyrrolo[2,3-d]pyrimidin-4-amine] came in with a half-maximal effective concentration (EC50) of 1200 nM.
In the case of `C[C@@]1(O)[C@@H]([C@H](O)c2cncc(C(F)F)c2)O[C@@H](n2ccc3c(N)ncnc32)[C@@H]1O` [Example 74, 7-{(5R)-5-C-[5-(difluoromethyl)pyridin-3-yl]-3-C-methyl-beta-D-ribofuranosyl}-7H-pyrrolo[2,3-d]pyrimidin-4-amine] it was 2710 nM.
To `C[C@@]1(O)[C@@H]([C@@H](O)c2ccc(Cl)cc2F)O[C@@H](n2ccc3c(N)ncnc32)[C@@H]1O` [Example 43, 7-[(5S)-5-C-(4-chloro-2-fluorophenyl)-3-C-methyl-beta-D-ribofuranosyl]-7H-pyrrolo[2,3-d]pyrimidin-4-amine] belongs more than 10000 nM; to `C[C@@]1(O)[C@@H]([C@H](O)c2ccc(F)c(F)c2)O[C@@H](n2ccc3c(N)ncnc32)[C@@H]1O` [Example 1, (2R,3S,4R,5R)-5-(4-amino-7H-pyrrolo[2,3-d]pyrimidin-7-yl)-2-((R)-(3,4-difluorophenyl)(hydroxy)methyl)-3-methyltetrahydrofuran-3,4-diol], 187 nM; to `Cc1ncnc2c1ccn2[C@@H]1O[C@H]([C@@H](C)c2cc(C(F)F)c(F)c3c2CNCC3)[C@@](C)(O)[C@H]1O` (single isomer, unassigned) [Example 93], 1.4 nM.
In turn, `Cc1ncnc2c1ccn2[C@@H]1O[C@H]([C@@H](C)c2cccc3c2CNCC3)[C@@](C)(O)[C@H]1O` [Example 87, (2R,3S,4R,5R)-3-methyl-5-(4-methyl-7H-pyrrolo[2,3-d]pyrimidin-7-yl)-2-((S)-1-(1,2,3,4-tetrahydroisoquinolin-8-yl)ethyl)tetrahydrofuran-3,4-diol] displayed an EC50 of 65 nM.
